According to patent US11952431B2, “Neutrophil-binding peptides” (YISSUM RESEARCH DEVELOPMENT COMPANY OF THE HEBREW …, priority 2020, dated 2024):

Legend:
non-neutrophil WBC = test: 16-KFP binding in whole blood; parameters: species or system human; conditions: healthy donor
From the text: (§1) A biotinylated KFP-tetramer multiantigen (designated 16-KFP) was generated in the same manner as the 16-LQI. In whole blood, 16-KFP bound ˜80% of human neutorophils and less than 10% of non-neutrophil WBC (FIG. 15A).

neutrophils [1] = test: Effect of KFP-tetramer / 16-KFP on neutrophil viability (microscopy, flow cytometry); type: cell-based, human
neutrophils [2] = test: Effect of KFP-tetramer / 16-KFP on neutrophil chemotaxis; type: cell-based, human
From the text: as §1

neutrophils [3] = test: Effect of KFP-tetramer / 16-KFP on neutrophil activation (ROS production); type: cell-based, human
From the text: as §1

human neutrophils = test: 16-KFP binding in whole blood; conditions: healthy donor
From the text: as §1

CD177 [4] = target: T1, CD177 (Homo sapiens, UniProt Q8N6Q3); test: Pull-down with KFP-tetramer as bait, mass spectrometry; type: binding
T1 construct: endogenous in cells; host or cells: human neutrophils from healthy donors, COPD patients and lung cancer patients
T1 sequence (Q8N6Q3 22-408): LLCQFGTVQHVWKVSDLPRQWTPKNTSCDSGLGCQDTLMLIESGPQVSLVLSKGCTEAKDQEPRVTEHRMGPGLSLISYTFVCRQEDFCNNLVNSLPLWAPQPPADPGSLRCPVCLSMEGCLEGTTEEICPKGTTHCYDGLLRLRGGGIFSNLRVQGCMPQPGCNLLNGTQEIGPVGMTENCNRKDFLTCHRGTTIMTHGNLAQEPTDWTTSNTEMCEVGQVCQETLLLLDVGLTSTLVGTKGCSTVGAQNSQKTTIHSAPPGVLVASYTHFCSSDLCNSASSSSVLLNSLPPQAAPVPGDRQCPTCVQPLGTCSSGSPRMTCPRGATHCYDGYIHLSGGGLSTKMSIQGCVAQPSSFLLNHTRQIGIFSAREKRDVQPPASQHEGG
From the text: (§2) Similarly, the human CD177 was identified as a binding-partner of the peptides binding to human neutrophils (SEQ ID NOs: 1-8). […] Still, the extent of KFP-tetramer binding and CD177 levels fit well within the correlation plot and support the role of CD177 in mediating the binding of the KFP-tetramer to neutrophils (FIG. 22B).

[5] = tested on: murine neutrophils (HDNs from 4T1-tumor bearing mice); test: Titration of binding to purified HDNs, flow cytometry; parameters: species or system mouse; conditions: tetramer-SA complex of control peptide
Protocol: Analysis was performed by flow cytometry.

CD177 [6] = target: T1, CD177; test: Correlation of CD177 expression and KFP-tetramer binding in donors; conditions: healthy donors, patients with COPD and lung cancer patients
From the text: FIGS. 22A-C: (22A) Bar graph of 16-KFP binding and CD177 expression of neutrophils of healthy donors (2, 6, 10), COPD patients (11, 12) and lung cancer patients (13). (22B) Line graph of correlation between CD177 expression and 16-KFP binding in different donors. (22C) Bare graph of binding of 16-KFP to neutrophils with increasing amounts of CD177 blocking antibody.
as §2

Row | Substance | non-neutrophil WBC bound (non-neutrophil WBC) | effect on neutrophil viability (neutrophils [1]) | effect on chemotactic properties (neutrophils [2]) | effect on neutrophil activation (ROS production, FIG. 15B) (neutrophils [3]) | human neutrophils bound (human neutrophils) [%] | binding partner identified (CD177 [4]) | binding to murine neutrophils [5] | chemoattraction of neutrophils (neutrophils [2]; FIG. 15E) | effect on neutrophil attraction to CXCL2 (neutrophils [2]; FIG. 15F) | correlation between CD177 expression and binding to neutrophils (CD177 [6])
1 | 16-KFP: biotinylated KFP-tetramer multiantigen generated in the same manner as 16-LQI; tetramer-SA complex used as control on murine neutrophils [Peptide 16-KFP] | less than 10% | no significant effect | no significant effect | no significant effect | ~80 | CD177 was identified as the binding partner | did not show binding |  |  | 
2 | (KFPDLDSRRLPHMSL (SEQ ID NO: 1) Doa-Doa-C)4-(Mpa)-4-Lys2-Lys-beta-Ala-Lys(Biotin)-beta-Ala-OH [KFP tetramer] |  |  |  | no effect |  |  |  | not chemoattractive | no effect | strong positive correlation
